33 compounds from ChEMBL document CHEMBL1275276, “Analysis of physico-chemical properties of substrates of ABC and MFS multidrug transporters of pathogenic Candida albicans” (2010) can be followed below.

Activity calls are given as the source filed them. How the calls were made is not given here. Numbered stars: 1 amine (or outer) side, 2 acyl side, 3 side chain; on linkers, the order of the positions; unused ones are H or OH. Bridge positions count the residues as written; N and C are the ends. Square brackets hold non-standard residues; d marks the D form. Peptide text beside a SMILES is read from it. I, II: the chains in the order shown. Actinocin(1to9) = Cc1c2oc3c(C)ccc(C(=O)[*:2])c3nc-2c(C(=O)[*:1])c(N)c1=O; NMeV = CN[C@H](C(=O)O)C(C)C; Sar = CNCC(=O)O

Assay [1] relates to Candida albicans. As to the kind of experiment: Binding affinity to Candida albicans CaMdr1p expressed in yeast AD1-8u.
The subject of assay [2] is Saccharomyces cerevisiae. In words: Antifungal activity against yeast AD1-8u expressing Candida albicans CaMdr1p by agar disk diffusion assay. Further: test concentration or dose not given here. The class given is functional.
The subject of assay [3] is Saccharomyces cerevisiae. In words: Antifungal activity against yeast AD1-8u expressing Candida albicans CaCdr1p by agar disk diffusion assay. In kind it is functional. Background: Agar diffusion results depend on both activity and mobility in agar.
Assay [4] relates to Candida albicans. As to the kind of experiment: Binding affinity to Candida albicans CaCdr1p expressed in yeast AD1-8u.
Wherever IZ is given: test concentration or dose not given here.

`CCCCCCCCCCCC[N+](C)(C)CCCS(=O)(=O)[O-]`: the result in assay [1] was Active. For the same compound, the “inhibition zone (IZ)” value amounted to 0.8 cm in assay [2] and 0.2 cm in assay [3]. Further, the outcome in assay [4] was inactive.
For the compound `COc1ccc(C[C@H]2NC[C@H](O)[C@H]2OC(C)=O)cc1` [ANISOMYCIN], the result in assay [1] and in assay [4] was Active. Further, the “inhibition zone (IZ)” value was found to be 0.7 cm in assay [2] and 0.9 cm in assay [3].
On to `COc1cc([C@@H]2c3cc4c(cc3[C@@H](O[C@@H]3O[C@@H]5CO[C@@H](C)O[C@H]5[C@H](O)[C@H]3O)[C@H]3COC(=O)[C@H]23)OCO4)cc(OC)c1O` [ETOPOSIDE], for which the result in assay [1] and in assay [4] was Active. In addition, the results for the “inhibition zone (IZ)” value in assay [2] and in assay [3] were 0.3 cm and 1.5 cm, respectively.
On to `C[C@@H]1C[C@H]2[C@@H]3CCC4=CC(=O)C=C[C@]4(C)[C@@]3(F)[C@@H](O)C[C@]2(C)[C@@]1(O)C(=O)CO` [DEXAMETHASONE], for which the outcome in assay [1] was inactive. Besides, the “inhibition zone (IZ)” value in assay [2] is recorded as 0 cm; in assay [3], 0.9 cm. In assay [4], the result was Active.
On to `O=P1(N(CCCl)CCCl)NCCCO1` (centres undefined) [CYCLOPHOSPHAMIDE ANHYDROUS], for which the outcome in assay [1] and in assay [4] was inactive. Besides, the “inhibition zone (IZ)” value in assay [2] and in assay [3] was 0 cm throughout.
As for `O=C(N[C@H](CO)[C@H](O)c1ccc([N+](=O)[O-])cc1)C(Cl)Cl` [CHLORAMPHENICOL], in assay [1], the outcome was inactive. The “inhibition zone (IZ)” value in assay [2] amounted to 0 cm; in assay [3] it was 0.8 cm. In assay [4], the outcome was Active.
For `CCCCCCCCCCCCCC(=O)OCCN(C)C`, in that order: “inactive”, 0 cm, 0 cm and “inactive”.
Regarding `Oc1cccc2cccnc12` [OXYQUINOLINE], the result in assay [1] and in assay [4] was inactive. Further, the “inhibition zone (IZ)” value in assay [2] and in assay [3] was 0 cm in each case.
Turning to `COc1ccc2c(c1)c(CC(=O)O)c(C)n2C(=O)c1ccc(Cl)cc1` [INDOMETHACIN], the outcome in assay [1] and in assay [4] was inactive. In addition, the “inhibition zone (IZ)” value in assay [2] and in assay [3] was 0 cm throughout.
Regarding `COc1ccc2c3c([nH]c2c1)[C@H](C=C(C)C)N1C(=O)[C@@H]2CCCN2C(=O)[C@@H]1C3` [FUMITREMORGIN], the outcome in assay [1] and in assay [4] was inactive. The “inhibition zone (IZ)” value in assay [2] and in assay [3] was 0 cm in each case.
For the compound `Nc1nc(=O)[nH]cc1F` [FLUCYTOSINE], the result in assay [1] and in assay [4] was inactive. In addition, the “inhibition zone (IZ)” value in assay [2] and in assay [3] was 0 cm each time.
On to `COc1cccc2c1C(=O)c1c(O)c3c(c(O)c1C2=O)C[C@@](O)(C(=O)CO)C[C@@H]3O[C@H]1C[C@H](N)[C@H](O)[C@H](C)O1` [DOXORUBICIN], for which the result in assay [1] and in assay [4] was Active. The “inhibition zone (IZ)” value came out at 0.3 cm in assay [2] and 0.4 cm in assay [3].
Regarding `COc1ccc2cc3[n+](cc2c1OC)CCc1cc2c(cc1-3)OCO2.[Cl-]` [BERBERINE CHLORIDE], the outcome in assay [1] was inactive. For the same compound, the results for the “inhibition zone (IZ)” value in assay [2] and in assay [3] were 0 cm and 0.5 cm, respectively. Besides, the result in assay [4] was Active.
For `COc1c(C)c2c(c(O)c1C/C=C(\C)CCC(=O)O)C(=O)OC2` [MYCOPHENOLIC ACID], the outcome in assay [1] and in assay [4] was inactive. Also, the “inhibition zone (IZ)” value in assay [2] and in assay [3] was 0 cm in each case.
`CC(=O)O[C@H]1C(=O)[C@@]2(C)[C@H]([C@H](OC(=O)c3ccccc3)[C@]3(O)C[C@H](OC(=O)[C@H](O)[C@@H](NC(=O)c4ccccc4)c4ccccc4)C(C)=C1C3(C)C)[C@]1(OC(C)=O)CO[C@@H]1C[C@@H]2O` [PACLITAXEL]: the result in assay [1] and in assay [4] was inactive. Besides, the “inhibition zone (IZ)” value in assay [2] and in assay [3] was 0 cm each time.
Regarding `COc1cc2ncnc(Nc3ccc(F)c(Cl)c3)c2cc1OCCCN1CCOCC1` [GEFITINIB], the result in assay [1] was inactive. Moreover, the “inhibition zone (IZ)” value in assay [2] is given as 0.2 cm. Moreover, the outcome in assay [4] was Active.
On to `CCCCCCCCCCCC(=O)OCCN(CC)CC`, for which the outcome in assay [1] was Active. Also, the “inhibition zone (IZ)” value in assay [2] worked out at 0.7 cm; in assay [3] it was 0.2 cm. Moreover, in assay [4], the result was inactive.
Regarding `Clc1ccc(COC(Cn2ccnc2)c2ccc(Cl)cc2Cl)c(Cl)c1` (centres undefined) [MICONAZOLE], the outcome in assay [1] was inactive. The “inhibition zone (IZ)” value was determined as 0.2 cm in assay [2] and 0.5 cm in assay [3]. Also, the result in assay [4] was Active.
Turning to `CN(C/C=C/C#CC(C)(C)C)Cc1cccc2ccccc12` [TERBINAFINE], the result in assay [1] was inactive. Moreover, the figures for the “inhibition zone (IZ)” value in assay [2] and in assay [3] were 0 cm and 1.2 cm, respectively. In addition, the outcome in assay [4] was Active.
On to `CCC(C)n1ncn(-c2ccc(N3CCN(c4ccc(OCC5COC(Cn6cncn6)(c6ccc(Cl)cc6Cl)O5)cc4)CC3)cc2)c1=O` (centres undefined) [ITRACONAZOLE], for which, in assay [1], the outcome was inactive. In addition, the “inhibition zone (IZ)” value was 0 cm in assay [2] and 1.1 cm in assay [3]. Also, the result in assay [4] was Active.
For `CCC(=O)Nc1ccc(Cl)c(Cl)c1` [PROPANIL], in that order: “Active”, 0.9 cm, 0.3 cm and “Active”.
On to `CN[C@H]1C[C@@H](N)[C@H](O)[C@@H](O[C@@H]2O[C@H](CO)[C@H](O)[C@H]3O[C@@]4(O[C@H]23)O[C@H]([C@H](N)CO)[C@H](O)[C@H](O)[C@H]4O)[C@@H]1O`, for which the outcome in assay [1] and in assay [4] was inactive. Moreover, the “inhibition zone (IZ)” value in assay [2] and in assay [3] was 0 cm each time.
As to `CCCCCCCCCCCCn1cncn1`, the outcome in assay [1] was inactive. In addition, the results for the “inhibition zone (IZ)” value in assay [2] and in assay [3] were 0.1 cm and 0.7 cm, respectively. Moreover, the outcome in assay [4] was Active.
Consider `Cc1c2oc3c(C)ccc(C(=O)N[C@@H]4C(=O)N[C@H](C(C)C)C(=O)N5CCC[C@H]5C(=O)N(C)CC(=O)N(C)[C@@H](C(C)C)C(=O)O[C@@H]4C)c3nc-2c(C(=O)N[C@@H]2C(=O)N[C@H](C(C)C)C(=O)N3CCC[C@H]3C(=O)N(C)CC(=O)N(C)[C@@H](C(C)C)C(=O)O[C@@H]2C)c(N)c1=O` [DACTINOMYCIN] (I: T[dV]P[Sar][NMeV] / II: T[dV]P[Sar][NMeV]; ester I:1-I:C, II:1-II:C; linker I:N-II:N via Actinocin(1to9)), for which, in assay [1], the outcome was Active. Moreover, the results for the “inhibition zone (IZ)” value in assay [2] and in assay [3] were 0.3 cm and 0.1 cm, respectively. For the same compound, the result in assay [4] was inactive.
In the case of `O=[N+]([O-])c1cc[n+]([O-])c2ccccc12` [4-NITROQUINOLINE-1-OXIDE], the outcome in assay [1] and in assay [4] was Active. Moreover, the “inhibition zone (IZ)” value in assay [2] worked out at 0.4 cm; in assay [3], 0.3 cm.
`CC(=O)[C@H]1CC[C@H]2[C@@H]3CCC4=CC(=O)CC[C@]4(C)[C@H]3CC[C@]12C` [PROGESTERONE]: the outcome in assay [1] and in assay [4] was inactive. Moreover, the “inhibition zone (IZ)” value in assay [2] and in assay [3] was 0 cm in each case.
With `CC[C@@]1(O)C(=O)OCc2c1cc1n(c2=O)Cc2cc3c(CN(C)C)c(O)ccc3nc2-1` [TOPOTECAN], in assay [1], the result was inactive. The “inhibition zone (IZ)” value in assay [2] stood at 0.2 cm; in assay [3], 0.5 cm. Besides, the result in assay [4] was Active.
As to `c1c[nH]cn1` [IMIDAZOLE], the result in assay [1] and in assay [4] was inactive. In addition, the “inhibition zone (IZ)” value in assay [2] and in assay [3] was 0 cm throughout.
As for `CCN(CC)C(=S)SSC(=S)N(CC)CC`, the result in assay [1] and in assay [4] was Active. Also, the figures for the “inhibition zone (IZ)” value in assay [2] and in assay [3] were 0.3 cm and 0.4 cm, respectively.
As for `C[C@@H](c1ncncc1F)[C@](O)(Cn1cncn1)c1ccc(F)cc1F` [VORICONAZOLE], the outcome in assay [1] and in assay [4] was Active. Moreover, the “inhibition zone (IZ)” value in assay [2] stood at 0.8 cm; in assay [3], 1.9 cm.
For `COc1cccc2c1C(=O)c1c(O)c3c(c(O)c1C2=O)C[C@@](O)(C(C)=O)C[C@@H]3O[C@H]1C[C@H](N)[C@H](O)[C@H](C)O1` [DAUNORUBICIN], in assay [1], the result was inactive. The “inhibition zone (IZ)” value in assay [2] is given as 0 cm; in assay [3], 0.5 cm. Further, the outcome in assay [4] was Active.
`CO[C@@H]1[C@@H](OC(N)=O)[C@@H](O)[C@H](Oc2ccc3c(O)c(NC(=O)c4ccc(O)c(CC=C(C)C)c4)c(=O)oc3c2C)OC1(C)C` [NOVOBIOCIN]: the result in assay [1] and in assay [4] was inactive. Also, the “inhibition zone (IZ)” value in assay [2] and in assay [3] was 0 cm throughout.
Consider `CC(=O)N1CCN(c2ccc(OCC3COC(Cn4ccnc4)(c4ccc(Cl)cc4Cl)O3)cc2)CC1` (centres undefined) [KETOCONAZOLE], for which the “inhibition zone (IZ)” value in assay [3] came to 1.4 cm. In addition, the result in assay [4] was Active.
